System: norovirus VLPs (GII.4, GII.3, GII.17)
Assay: In vitro selection by cDNA display against VLPs with appearance frequency analysis of sequences
Conditions: count among peptide aptamer sequences obtained after in vitro selection cycles (7 cycles GII.4, 5 cycles GII.3 and GII.17)
Procedure: The constructed cDNA display and VLPs were incubated in 100 μL of a dialysis selection buffer (20 mM HEPES (pH 7.4), 150 mM NaCl, and 0.05% s Tween 20) at the concentrations shown in Table 9 below at 25° C. for 30 minutes. Subsequently, the resultant was diluted to 1 mL with the dialysis selection buffer, and was put in Float-A-Lyzer G2 Dialysis Device CE, 1000kD MWCO (manufactured by Spectrum Laboratories, Inc.) and was dialyzed with 1 L of the dialysis selection buffer as the external solution at 25° C. During the dialysis, the external solution was replaced with new one 3 times every 2 hours, and the dialysis was performed overnight (for 8 hours) after the 4th replacement. The dialysis product was concentrated with Amicon Ultra 100K (manufactured by Merck Millipore S.A.S.) at 14,000×g for 5 minutes.
To an immunoplate (C-BOTTOM, CLEAR, MICROLON (registered trademark), HIGH BINDING, manufactured by Greiner Bio-One), 100 μL of 3 μg/mL GII.3 or GII.17 VLP solution was added and immobilization was performed at 4° C. overnight. Subsequently, the solution was discarded, and 200 μL of a blocking agent (EMD Millipore™ Blok™ NSB Blocking agents, Thermo Fisher Scientific) was added, followed by gently stirring at room temperature for 2 hours for blocking. On this occasion, wells not immobilizing the VLP were also subjected to similar blocking to be used in preselection.
The solution was discarded from the wells, the wells were washed with 200 μL of a wash buffer (10 mM Hepes (pH 7.4), 150 mM NaCl, and 0.05% Tween 20) three times, and 100 μL of cDNA display (constructed from 1.5 pmol of mRNA-linker) was then put in the wells not immobilizing the VLP, followed by gently stirring at room temperature for 30 minutes to perform preselection. Subsequently, the supernatant containing cDNA display that had not bound to the blocking agent was put in the wells immobilizing the VLP, followed by gently stirring at room temperature for 30 minutes to be bound to the VLP. The supernatant was discarded, washing with 100 μL of the wash buffer was performed four times, and 100 μL of a 5′ SDS solution was then added, followed by incubation at 50° C. for 15 minutes to elute the bound cDNA display.
Subsequently, the VLP-cDNA display complex obtained above was diluted to 100 μL with a dialysis selection buffer, and 10 μL of a coprecipitating agent (Quick-Precip Plus Solution, manufactured by EdgeBio) and 220 μL of 100% ethanol were added, followed by centrifugation at 20,000×g for 5 minutes. Subsequently, the supernatant was discarded, and 1 mL of 70, ethanol was added for rinsing. […] The PCR program was (a) 98° C. for 2 minutes, (b) 95° C. for 20 seconds, (c) 69° C. for 20 seconds, (d) 72° C. for 20 seconds (steps (b) to (d) were performed 25 cycles), and (e) 72° C. for 1 minute.
After the in vitro selection cycle (7 cycles for GII.4 and 5 cycles for GII.3 and GII.17 based on the libraries of 7 cycles obtained by GII.4 dialysis), a sequence library was prepared by the following method, and the sequence information was analyzed. The preparation of the sequence library and the sequencing were performed according to the 16S Metagenomic Sequencing Library Preparation protocol (manufactured by Illumina, Inc.).
The Fastq file of the obtained sequence was converted to a Fasta file, all of the obtained sequences were simultaneously translated from the first base of the start codon (ATG) at position 115 to the third base of the cysteine codon (TGC) at position 156 of the library sequence (SEQ ID NO: 279) using software MEGA.

Row | Substance | Appearance Frequency
1 | 207 (LHHSSY; Designed peptide) [compound 207] | 6
2 | 208 (LLGKPV; Designed peptide) [compound 208] | 6
3 | 209 (LNDMSF; Designed peptide) [compound 209] | 6
4 | 210 (LSLRSQ; Designed peptide) [compound 210] | 6
5 | 211 (LTALSV; Designed peptide) [compound 211] | 6
6 | 212 (MDHEMF; Designed peptide) [compound 212] | 6
7 | 213 (MQFELV; Designed peptide) [compound 213] | 6
8 | 214 (MSNKMV; Designed peptide) [compound 214] | 6
9 | 215 (NAVSLK; Designed peptide) [compound 215] | 6
10 | 216 (NCRTRP; Designed peptide) [compound 216] | 6
11 | 217 (NDHDHH; Designed peptide) [compound 217] | 6
12 | 218 (NGHSHA; Designed peptide) [compound 218] | 6
13 | 219 (NKSFHR; Designed peptide) [compound 219] | 6
14 | 220 (NPVHIK; Designed peptide) [compound 220] | 6
15 | 221 (NRVKPR; Designed peptide) [compound 221] | 6
16 | 222 (NSIAHR; Designed peptide) [compound 222] | 6
17 | 223 (NSRYFT; Designed peptide) [compound 223] | 6
18 | 224 (PDRFCA; Designed peptide) [compound 224] | 6
19 | 225 (PWTVPN; Designed peptide) [compound 225] | 6
20 | 226 (QCELKD; Designed peptide) [compound 226] | 6
21 | 227 (QFSQLG; Designed peptide) [compound 227] | 6

Row | Substance | Appearance Frequency
22 | 228 (QRVSFL; Designed peptide) [compound 228] | 6
23 | 229 (QVIQRL; Designed peptide) [compound 229] | 6
24 | 230 (QYCFVG; Designed peptide) [compound 230] | 6
25 | 231 (RGGRTL; Designed peptide) [compound 231] | 6
26 | 232 (RGHPST; Designed peptide) [compound 232] | 6
27 | 233 (RGTMWL; Designed peptide) [compound 233] | 6
28 | 234 (RHGQFF; Designed peptide) [compound 234] | 6
29 | 235 (RHTQTL; Designed peptide) [compound 235] | 6
30 | 236 (RIVLES; Designed peptide) [compound 236] | 6
31 | 237 (RKCIDR; Designed peptide) [compound 237] | 6
32 | 238 (RLHQCR; Designed peptide) [compound 238] | 6
33 | 239 (RLRDPQ; Designed peptide) [compound 239] | 6
34 | 240 (RNHSRI; Designed peptide) [compound 240] | 6
35 | 241 (RSSAKR; Designed peptide) [compound 241] | 6
36 | 242 (RTISGS; Designed peptide) [compound 242] | 6
37 | 243 (RTLLVQ; Designed peptide) [compound 243] | 6
38 | 244 (RTVPSS; Designed peptide) [compound 244] | 6
39 | 245 (RYMPVA; Designed peptide) [compound 245] | 6
40 | 246 (SAMFAS; Designed peptide) [compound 246] | 6
41 | 247 (SEHNRY; Designed peptide) [compound 247] | 6

Source: patent publication US20220221458A1, “NOROVIRUS-BINDING PEPTIDE” (Kao Corporation, priority 2019, published 2022)
